Experimental data: US8754129B2, “Crystalline vorinostat form VI” (Generics [UK] Limited, priority 2008, dated 2014)

Assay: Polymorphic stability on storage at 40° C./75% relative humidity
Assay type: physicochemical
Settings: kept at a temperature of 40° C.±2° C. and a relative humidity of 75%±5% for 6 months
Protocol: All XRPD analyses were carried out on a Bruker D8 Advance instrument, equipped with a copper radiation source with a wavelength of 1.54 Å.
All DSC analyses were carried out on a Perkin Elmer instrument, over a temperature range of 25° C. to 250° C., at a heating rate of 10° C./min, using a closed aluminium pan with a pinhole as crucible.

## O=C(CCCCCCC(=O)Nc1ccccc1)NO [crystalline form VI, N-hydroxy-N′-phenyl-octanediamide]
  polymorphic stability (conversion over time to other polymorphs): very stable polymorphically with no conversion over time to other polymorphs
